# Assay results taken from PMC6950750, “Newly Discovered Action of HpTx3 from Venom of Heteropoda venatoria on Nav1.7 and Its Pharmacological Implications in Analgesia” (Toxins, 2019).
# Bridge positions count the residues as written; N and C are the ends. Peptide text beside a SMILES is read from it.
# Experiments:
# [1] = target: T1, Nav1.7 D816N (Homo sapiens, UniProt Q15858, D827N); assay: Whole-cell patch-clamp, mutant Nav1.7 D816N; type: cell-based
# T1 construct: expressed in transfected cells; host or cells: HEK293T
# T1 sequence (Q15858 other isoform, or with tags, fused parts or gaps D816N): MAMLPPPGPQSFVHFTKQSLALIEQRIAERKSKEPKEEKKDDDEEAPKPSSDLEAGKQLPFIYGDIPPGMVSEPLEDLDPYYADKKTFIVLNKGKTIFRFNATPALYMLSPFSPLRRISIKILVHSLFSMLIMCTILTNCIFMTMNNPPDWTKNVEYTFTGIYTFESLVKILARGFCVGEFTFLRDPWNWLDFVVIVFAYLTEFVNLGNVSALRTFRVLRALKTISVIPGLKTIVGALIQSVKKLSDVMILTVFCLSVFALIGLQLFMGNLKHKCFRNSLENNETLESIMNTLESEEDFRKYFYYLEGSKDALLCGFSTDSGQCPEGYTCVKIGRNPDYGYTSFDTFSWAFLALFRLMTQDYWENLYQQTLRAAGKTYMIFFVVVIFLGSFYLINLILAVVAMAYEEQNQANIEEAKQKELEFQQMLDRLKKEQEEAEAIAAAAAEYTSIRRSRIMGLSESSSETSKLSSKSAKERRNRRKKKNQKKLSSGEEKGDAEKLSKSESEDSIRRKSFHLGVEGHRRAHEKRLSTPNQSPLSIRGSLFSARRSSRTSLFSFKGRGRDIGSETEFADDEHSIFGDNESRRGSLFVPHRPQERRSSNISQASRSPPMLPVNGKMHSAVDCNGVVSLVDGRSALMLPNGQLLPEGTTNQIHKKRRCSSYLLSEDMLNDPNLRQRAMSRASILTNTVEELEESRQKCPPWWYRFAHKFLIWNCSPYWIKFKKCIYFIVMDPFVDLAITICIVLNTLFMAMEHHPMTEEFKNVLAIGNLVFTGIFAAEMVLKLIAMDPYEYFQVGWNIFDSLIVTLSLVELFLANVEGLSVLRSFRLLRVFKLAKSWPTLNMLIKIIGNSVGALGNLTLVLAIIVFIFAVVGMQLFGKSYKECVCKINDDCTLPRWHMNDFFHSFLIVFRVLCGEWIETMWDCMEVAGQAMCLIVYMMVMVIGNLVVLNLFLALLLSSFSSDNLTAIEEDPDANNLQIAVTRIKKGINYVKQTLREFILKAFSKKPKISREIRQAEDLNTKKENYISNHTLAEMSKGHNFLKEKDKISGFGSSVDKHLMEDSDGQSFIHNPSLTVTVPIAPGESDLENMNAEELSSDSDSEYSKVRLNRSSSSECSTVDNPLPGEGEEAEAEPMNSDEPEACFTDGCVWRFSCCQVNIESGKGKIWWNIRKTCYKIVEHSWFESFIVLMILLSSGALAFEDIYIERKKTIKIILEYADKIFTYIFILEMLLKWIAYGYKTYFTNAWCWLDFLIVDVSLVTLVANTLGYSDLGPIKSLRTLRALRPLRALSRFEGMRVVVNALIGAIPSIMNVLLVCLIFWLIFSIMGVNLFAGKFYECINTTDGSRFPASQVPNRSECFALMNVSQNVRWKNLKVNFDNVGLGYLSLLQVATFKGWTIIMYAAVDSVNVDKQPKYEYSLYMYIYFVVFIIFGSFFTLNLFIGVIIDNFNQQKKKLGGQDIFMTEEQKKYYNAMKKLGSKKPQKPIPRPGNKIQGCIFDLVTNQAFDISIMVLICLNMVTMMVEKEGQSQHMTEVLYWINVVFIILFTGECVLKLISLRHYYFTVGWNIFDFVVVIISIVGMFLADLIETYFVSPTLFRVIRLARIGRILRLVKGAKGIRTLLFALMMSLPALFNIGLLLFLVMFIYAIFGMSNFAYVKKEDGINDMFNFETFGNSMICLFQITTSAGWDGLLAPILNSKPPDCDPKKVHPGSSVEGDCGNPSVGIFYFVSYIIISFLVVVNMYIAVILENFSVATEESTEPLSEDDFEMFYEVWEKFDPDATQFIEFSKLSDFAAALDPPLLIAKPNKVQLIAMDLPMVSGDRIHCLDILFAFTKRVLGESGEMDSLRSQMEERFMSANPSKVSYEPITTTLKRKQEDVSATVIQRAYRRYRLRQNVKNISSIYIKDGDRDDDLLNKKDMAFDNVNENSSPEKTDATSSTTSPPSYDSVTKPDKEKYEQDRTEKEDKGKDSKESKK
# T1 sequence (Q07699 19-218, further chain): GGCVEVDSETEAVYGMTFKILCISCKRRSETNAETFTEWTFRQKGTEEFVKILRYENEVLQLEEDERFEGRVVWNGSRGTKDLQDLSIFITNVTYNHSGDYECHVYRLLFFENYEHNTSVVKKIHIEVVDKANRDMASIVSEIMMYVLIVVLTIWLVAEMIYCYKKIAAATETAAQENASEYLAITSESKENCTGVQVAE
# T1 sequence (O60939 30-215, further chain): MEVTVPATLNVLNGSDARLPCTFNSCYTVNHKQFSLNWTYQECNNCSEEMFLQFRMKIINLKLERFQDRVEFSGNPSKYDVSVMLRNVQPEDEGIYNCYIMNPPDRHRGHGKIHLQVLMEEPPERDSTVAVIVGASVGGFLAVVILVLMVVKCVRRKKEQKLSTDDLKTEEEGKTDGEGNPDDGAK
# From the text: (§1) All the used Nav channel subtype clones (Nav1.2–Nav1.9) and β subunit clones were preserved in our laboratory. cDNAs encoding rat Nav1.2, rat Nav1.3, human Nav1.5, and mouse Nav1.6 were subcloned into the vector pcDNA3.1; cDNA encoding rat Nav1.4 was subcloned into the vector pRGB4; cDNA encoding human Nav1.7 was subcloned into the vector pcDNA3.1-mod; cDNAs encoding rat Nav1.8 and human Nav1.9 were subcloned into the vectors pCMV-HA and pEGFP-N1, respectively. For localizing the binding sites of HpTx3 on the Nav1.7 and therefore probing the its mechanism of action, several chimeras were constructed with a recombination strategy by replacing the extracellular loop S3b–S4 in domain II, domain III, and domain IV of Nav1.7 with the counterpart sequences of Nav1.8, respectively, using the methods described. As a result, three chimeras were prepared, namely, Nav1.7/1.8DIIS3b–S4, Nav1.7/1.8DIII, and Nav1.7/1.8 DIV. Moreover, the amino acid residues D816 and E818 in the S3b–S4 sequence of Nav1.7 were mutated into N (Nav1.7 D816N) and Q (Nav1.7 E816Q), respectively.
# (§2) For heterologous expression, the vector plasmids containing wild-type (WT) Nav1.2–Nav1.7 and mutant plasmids were transiently transfected into HEK293T cells (China Center for Type Culture Collection, Wuhan, China) using Lipofectamine 2000 (Invitrogen, Carlsbad, CA, USA) according to the manufacturer’s instructions. […] The cells with green fluorescence were selected for whole-cell patch-clamp analysis 24 h after transfection.
# The whole-cell patch-clamp technique was employed to analyze the effects of HpTx3 on Nav channel subtypes in the transfected HEK293T and ND7/23 cells using an EPC-10 USB patch-clamp amplifier (HEKA, Elektronik, Lambrecht, Germany). […] Data were collected with the PatchMaster software in the HEKA EPC-10 USB patch-clamp system (HEKA Elektronik, Lambrecht, Germany) and analyzed by the software Igo Pro-6.00, Prism (GraphPad Software, La Jolla, CA, USA), Sigmaplot 10.0 (Systat Software, Inc., San Jose, CA, USA), and OriginPro. […]
# [2] = target: T2, Nav1.5 (Homo sapiens, UniProt Q14524); assay: cell-based; type: cell-based
# T2 construct: expressed in transfected cells; host or cells: HEK293T
# From the text: as §1, with “Moreover, the amino acid residues D816 and E818 in the S3b–S4 sequence of Nav1.7 were mutated into N (Nav1.7 D816N) and Q (Nav1.7 E816Q), respectively.” left out
# as §2, with “transfection. […]” for “transfection.”
# [3] = target: T3, Nav1.6 (Mus musculus, UniProt Q9WTU3); assay: Whole-cell patch-clamp, Nav1.6 currents in HEK293T cells; type: cell-based; conditions: HEK-293T, 1 μM HpTx3, n = 4–6
# T3 construct: expressed in transfected cells; host or cells: HEK293T
# From the text: as §1, with “Moreover, the amino acid residues D816 and E818 in the S3b–S4 sequence of Nav1.7 were mutated into N (Nav1.7 D816N) and Q (Nav1.7 E816Q), respectively.” left out
# as §2, with “transfection. […]” for “transfection.”
# [4] = target: T4, Nav1.3 (Rattus norvegicus, UniProt P08104); assay: Whole-cell patch-clamp, Nav1.3 currents in HEK293T cells; type: cell-based
# T4 construct: expressed in transfected cells; host or cells: HEK293T
# From the text: as §1, with “Moreover, the amino acid residues D816 and E818 in the S3b–S4 sequence of Nav1.7 were mutated into N (Nav1.7 D816N) and Q (Nav1.7 E816Q), respectively.” left out
# as §2, with “transfection. […]” for “transfection.”
# [5] = system: hERG channel; assay: Whole-cell patch-clamp, hERG channel in HEK293T cells; type: cell-based; conditions: 1 µM HpTx3, n = 3
# Procedure: The effect of HpTx3 on the hERG channel expressed in HEK293T cells was assayed using the whole cell patch-clamp technique according to the previous method with some modifications. The bathing solution contained (in mM): HEPES 10, MgCl2 1, CaCl2 25, KCl 5, NaCl 50 (pH 7.4, adjusted with 1 M NaOH). The suction pipettes solution contained (in mM): MgCl2 2.5, KCl 140, EGTA 11, HEPES 10 (pH 7.2, adjusted with KOH). The osmotic pressure of the two solutions was adjusted to 280 ± 5 mOsm/L with sucrose. The currents of the hERG channel were induced at −40 mV after a test potential of +30 mV from a holding potential of −80 mV.
# [6] = target: T5, Nav1.2 (Rattus norvegicus, UniProt P04775); assay: Whole-cell patch-clamp, Nav1.2 currents in HEK293T cells; type: cell-based
# T5 construct: expressed in transfected cells; host or cells: HEK293T
# From the text: as §1, with “Moreover, the amino acid residues D816 and E818 in the S3b–S4 sequence of Nav1.7 were mutated into N (Nav1.7 D816N) and Q (Nav1.7 E816Q), respectively.” left out
# as §2, with “transfection. […]” for “transfection.”
# [7] = target: T6, Nav1.4 (Rattus norvegicus, UniProt P15390); assay: Whole-cell patch-clamp, Nav1.4 currents in HEK293T cells; type: cell-based
# T6 construct: expressed in transfected cells; host or cells: HEK293T
# T6 sequence (P15390 whole entry): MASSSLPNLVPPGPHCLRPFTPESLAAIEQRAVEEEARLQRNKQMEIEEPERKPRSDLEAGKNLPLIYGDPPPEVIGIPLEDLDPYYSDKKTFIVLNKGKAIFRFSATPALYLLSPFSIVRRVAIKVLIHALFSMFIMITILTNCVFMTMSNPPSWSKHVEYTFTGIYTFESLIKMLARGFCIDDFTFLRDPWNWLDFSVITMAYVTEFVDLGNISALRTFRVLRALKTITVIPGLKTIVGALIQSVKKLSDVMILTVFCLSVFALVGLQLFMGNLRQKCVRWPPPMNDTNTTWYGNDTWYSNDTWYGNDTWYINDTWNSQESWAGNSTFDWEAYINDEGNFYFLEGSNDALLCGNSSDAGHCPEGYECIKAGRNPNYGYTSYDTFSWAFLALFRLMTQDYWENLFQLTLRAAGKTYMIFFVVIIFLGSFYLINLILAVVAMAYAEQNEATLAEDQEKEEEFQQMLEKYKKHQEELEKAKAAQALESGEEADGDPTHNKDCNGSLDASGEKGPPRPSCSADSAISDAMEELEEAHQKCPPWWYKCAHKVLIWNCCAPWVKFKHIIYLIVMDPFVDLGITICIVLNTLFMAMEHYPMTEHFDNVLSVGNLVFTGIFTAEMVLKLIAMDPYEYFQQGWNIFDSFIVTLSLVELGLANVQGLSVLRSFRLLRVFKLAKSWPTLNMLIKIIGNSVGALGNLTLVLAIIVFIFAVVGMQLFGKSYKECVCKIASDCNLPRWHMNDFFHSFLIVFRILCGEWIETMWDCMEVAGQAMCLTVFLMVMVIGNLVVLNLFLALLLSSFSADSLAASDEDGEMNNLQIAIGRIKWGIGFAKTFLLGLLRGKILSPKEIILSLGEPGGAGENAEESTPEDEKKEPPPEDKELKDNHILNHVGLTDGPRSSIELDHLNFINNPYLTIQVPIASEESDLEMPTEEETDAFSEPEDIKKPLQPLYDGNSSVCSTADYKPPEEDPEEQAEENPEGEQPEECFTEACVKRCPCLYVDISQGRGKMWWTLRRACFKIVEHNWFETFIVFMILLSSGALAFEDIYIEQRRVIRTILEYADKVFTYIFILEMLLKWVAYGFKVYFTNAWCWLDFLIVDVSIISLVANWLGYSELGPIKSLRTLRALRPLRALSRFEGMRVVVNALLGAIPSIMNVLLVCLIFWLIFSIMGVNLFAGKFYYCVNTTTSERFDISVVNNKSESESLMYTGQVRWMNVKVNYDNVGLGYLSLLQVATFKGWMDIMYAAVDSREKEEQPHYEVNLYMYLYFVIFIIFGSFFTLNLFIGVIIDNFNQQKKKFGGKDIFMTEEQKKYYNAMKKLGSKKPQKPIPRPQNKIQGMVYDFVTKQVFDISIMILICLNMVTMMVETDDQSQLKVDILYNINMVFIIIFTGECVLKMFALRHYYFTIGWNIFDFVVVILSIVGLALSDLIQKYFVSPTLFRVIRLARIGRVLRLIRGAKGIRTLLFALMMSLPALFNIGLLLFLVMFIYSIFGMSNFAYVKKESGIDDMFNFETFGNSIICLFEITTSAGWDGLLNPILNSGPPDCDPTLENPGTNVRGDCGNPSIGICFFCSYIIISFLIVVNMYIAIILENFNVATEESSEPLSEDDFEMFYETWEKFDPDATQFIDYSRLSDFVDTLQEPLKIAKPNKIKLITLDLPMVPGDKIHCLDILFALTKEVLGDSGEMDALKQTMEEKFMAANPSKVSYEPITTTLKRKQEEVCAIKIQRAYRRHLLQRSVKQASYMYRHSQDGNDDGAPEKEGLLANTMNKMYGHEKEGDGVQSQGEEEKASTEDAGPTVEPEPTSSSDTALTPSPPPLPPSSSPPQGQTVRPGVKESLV
# From the text: as §1, with “Moreover, the amino acid residues D816 and E818 in the S3b–S4 sequence of Nav1.7 were mutated into N (Nav1.7 D816N) and Q (Nav1.7 E816Q), respectively.” left out
# as §2, with “transfection. […]” for “transfection.”
# [8] = target: T7, Nav1.7 (Homo sapiens, UniProt Q15858); assay: Whole-cell patch-clamp, Nav1.7 currents in HEK293T cells; type: cell-based; conditions: wild type Nav1.7, HEK293T, mean ± SD, n = 4–6
# T7 construct: expressed in transfected cells; host or cells: HEK293T
# T7 sequence (O60939 30-215): as the sequence (O60939 30-215, further chain) above
# T7 sequence (Q07699 19-218, further chain): as the sequence (Q07699 19-218, further chain) above
# T7 sequence (Q15858 other isoform, or with tags, fused parts or gaps): as the sequence (Q15858 other isoform, or with tags, fused parts or gaps D816N) above, with N816D counted along it
# From the text: as §1, with “Moreover, the amino acid residues D816 and E818 in the S3b–S4 sequence of Nav1.7 were mutated into N (Nav1.7 D816N) and Q (Nav1.7 E816Q), respectively.” left out
# as §2, with “transfection. […]” for “transfection.”
# [9] = system: C57BL/6 mice; assay: In vivo toxicity; parameters: species or system mouse (C57BL/6); conditions: 20 mg/kg i.p., 8 mice
# Procedure: For detecting the potential in vivo toxicity of HpTx3, eight C57BL/6 mice were each intraperitoneally injected with HpTx3 at a dose of 20 mg/kg, which was 4-fold greater than the maximum dose (5 mg/kg) and 100-fold greater than the minimum dose (0.2 mg/kg) that were used in analgesic experiments.
# [10] = system: nociceptive neuron excitability; conditions: orofacial and other regions in patients; cited from earlier work
# From the text: Kv4 channels are expressed predominately in the somata of small and large diameter nociceptors and the dorsal horn of the spinal cord, and all three Kv4 mRNA isoforms (Kv4.1–4.3) are expressed in whole DRG preparations. Overexpression of various components of the Kv4 complex attenuated DGR excitability and pain phenotypes of animals. The drugs that can increase A-type Kv ...
# [11] = system: C57BL/6 mice, CFA pain model; assay: Complete Freund’s adjuvant (CFA)-induced hyperalgesia; type: in vivo, mouse (C57BL/6); conditions: morphine 1 mg/kg i.m.
# Procedure: (§3) Healthy female C57BL/6 mice (weighting 18–20 g) that were used for analgesic activity assay were obtained from the Experimental Animal Center of SLac-kinda (Changsha, China) and were randomly assigned to five groups, each group generally containing 8 mice. […] The mice were maintained at a temperature of 20–25 °C and under a 12 h light/12 h dark cycle, with free access to food and water. The ethical approval for the in vivo animal experiments was obtained from the Animal Care and Use Committee of the Hunan Province Animal Management Office. (The approval code: 219/2019).
# [12] = system: C57BL/6 mice, formalin-induced pain model; assay: Formalin-induced paw licking; type: in vivo, mouse (C57BL/6); conditions: morphine 1 mg/kg i.m., n = 8
# Procedure: as §3
# The changes in the formalin-induced nociceptive reaction in mice was used to assess the in vivo effect of HpTx3 on Nav1.7-mediated pain [74, 77, 78]. Paw licking, a pain-related behavior, was induced by subcutaneous intraplantar injection of formalin. […] The time that was spent to lick the injected paw by each mouse during phase I (0–10 min after injection) and phase II (15–35 min after injection) was separately recorded with a digital stopwatch. The nociceptive behavior attenuation by HpTx3 was evaluated by comparison of the paw licking times of the mice in each group.
# [13] = system: C57BL/6 mice, hot plate pain model; assay: Hot plate test; type: in vivo, mouse (C57BL/6); conditions: morphine 1 mg/kg i.p.
# Procedure: as §3
# Hot plate test was conducted according to the method described. The hot plate test apparatus (model YSL-21, Jinan, China) was placed in a quiet room, and the temperature was set at 55 ± 1 °C. After each mouse was placed at the hot plate, its nociceptive responses (hind-paw licking or jumping) and nociceptive threshold (paw withdrawal latency) were observed and recorded. […] The mice displaying abnormal baseline paw withdrawals (shorter than 5 s and longer than 30 s) were excluded from the test.
# [14] = system: C57BL/6 mice, SNI model; assay: Spared nerve injury (SNI) model; type: in vivo, mouse (C57BL/6); conditions: morphine 1 mg/kg; 18 days after surgery; control 0.47 g; n = 8
# Procedure: as §3
# [15] = system: Nav1.7; conditions: cited from earlier work
# From the text: In order to further understand the actions of HpTx3 on the Nav1.7 channel, we examined the effect of the toxin on the current–voltage (I–V) relationship of the Nav channel subtype. […] When the conductance–voltage (G–V) relationship and the steady-state inactivation of Nav1.7 before and after HpTx3 treatment were inve ...
# [16] = system: rodent models of acute and inflammatory pain; conditions: cited from earlier work
# [17] = system: Nav1.1–1.8; conditions: cited from earlier work
# [18] = HEK293T, whole-cell patch-clamp, mean ± SD, n = 4–6
# [19] = also ref 20 (HwTx-IV), 36 (HnTx-III), 37 (HnTx-IV)
compound,measurement,setting,value
"CC[C@H](C)[C@@H]1NC(=O)[C@H](Cc2ccccc2)NC(=O)CNC(=O)[C@H](CCC(=O)O)NC(=O)[C@@H]2CSSC[C@H](NC(=O)[C@@H](N)CCC(=O)O)C(=O)NCC(=O)N[C@@H]([C@@H](C)O)C(=O)N[C@@H](CC(C)C)C(=O)N[C@@H](Cc3ccccc3)C(=O)N[C@@H](CO)C(=O)NCC(=O)N[C@H]3CSSC[C@H](NC1=O)C(=O)N[C@@H](CCCCN)C(=O)N[C@@H](CC(C)C)C(=O)N[C@@H](Cc1c[nH]c4ccccc14)C(=O)N[C@H](C(=O)N[C@@H](CCCNC(=N)N)C(=O)N[C@@H](Cc1ccc(O)cc1)C(=O)N[C@@H](CCC(=O)O)C(=O)N[C@@H](CCCNC(=N)N)C(=O)N[C@H](C(=O)N[C@@H](Cc1c[nH]c4ccccc14)C(N)=O)[C@@H](C)O)CSSC[C@H](NC(=O)[C@H](CC(=O)O)NC(=O)[C@H](C)NC(=O)[C@H](Cc1c[nH]cn1)NC(=O)[C@H]([C@@H](C)O)NC(=O)[C@H](CO)NC3=O)C(=O)N2 [HpTx3, Heteropodatoxin3] (H-ECGTLFSGCSTHADCCEGFICKLWCRYERTW-NH2; disulfide 2-16, 9-21, 15-25)",IC50,"[1]; HEK293T, mean ± SD, n = 6",3.13 ± 2.6 µM
same,inhibition at 1 µM,"[1]; HEK-293T, 1 μM HpTx3, HEK293T, n = 6, read-out: inhibition of Nav1.7 D816N current",23.7%
same,IC50 difference Nav1.7 D816N versus wild type Nav1.7,[1]; ratio of IC50,23 fold
same,inhibition at 1 µM,"[2]; HEK-293T, 1 μM HpTx3, HEK293T, whole-cell patch-clamp, n = 4–6, read-out: inhibition of Nav1.5 currents",12.8%
same,selectivity for Nav1.7 over Nav1.5,[2]; ratio of IC50,122 fold
same,inhibition at 1 µM,[3],46%
same,IC50,[4]; [18],14.1 ± 2.5 µM
same,selectivity for Nav1.7 over Nav1.3,[4]; ratio of IC50,104 fold
same,inhibition of hERG channel current,[5],about 40%
same,IC50,[6]; [18],19.7 ± 0.49 µM
same,selectivity for Nav1.7 over Nav1.2,[6]; ratio of IC50,145 fold
same,IC50,[7]; [18],18.5 ± 0.21 µM
same,selectivity for Nav1.7 over Nav1.4,[7]; ratio of IC50,136 fold
same,IC50,[8],0.136 ± 0.013 µM
same,course of symptoms,[9]; after 5 min and after 10 min,the symptoms became gradually weaker and disappeared completely after 10 min
same,symptoms after injection,[9]; within 5 min after injection,some discomfort symptoms such as body curling and writhing
O=C1[O][Pt]2([NH][C@@H]3CCCC[C@H]3[NH]2)[O]C1=O [Oxaliplatin],effect on nociceptive neuron excitability,[10],increases nociceptive neuron excitability to result in neuropathic pain
CN1CC[C@]23c4c5ccc(O)c4O[C@H]2[C@@H](O)C=C[C@H]3[C@H]1C5 [morphine],"time of strongest analgesic effect after injection, CFA",[11],0.5 h
same,"paw withdrawal threshold, CFA","[11]; control 0.71 g, n = 8",1.05 g
same,"total paw licking time, phase I","[12]; 0–10 min after formalin, control 248 s",99 s
same,"total paw licking time, phase II","[12]; 15–35 min after formalin, control 572.7 s",134.3 s
same,"time of most analgesic effect after injection, hot plate",[13],0.5 h
same,"average paw withdrawal latency, hot plate","[13]; 55 ± 1 °C, control 5.93 s, n = 8",11.03 s
same,"average paw withdrawal threshold, SNI",[14],1.05 g
HwTx-IV: Nav1.7-targeting peptide toxin,alteration in voltage-dependence of activation and steady-state inactivation of Nav1.7,[15]; [19],less than 5 mV
same,effect on I-V relationship for Nav1.7,[15]; [19],do not alter the I-V relationship
ProTx-II: typical gating modifier toxin,shift of Nav1.7 channel activation in the depolarizing direction,[15],31.1 mV
same,efficacy in rodent models of acute and inflammatory pain,[16],not efficacious
same,inhibition of sodium channel subtypes,[17],"can inhibit multiple sodium channel subtypes (Nav1.1–1.8), but preferentially inhibits hNav1.7"
